Target: T1, hFXR (Homo sapiens, UniProt Q96RI1)
T1 construct: expressed in transfected cells; host or cells: CV-1 cells
T1 sequence (Q96RI1 1-486): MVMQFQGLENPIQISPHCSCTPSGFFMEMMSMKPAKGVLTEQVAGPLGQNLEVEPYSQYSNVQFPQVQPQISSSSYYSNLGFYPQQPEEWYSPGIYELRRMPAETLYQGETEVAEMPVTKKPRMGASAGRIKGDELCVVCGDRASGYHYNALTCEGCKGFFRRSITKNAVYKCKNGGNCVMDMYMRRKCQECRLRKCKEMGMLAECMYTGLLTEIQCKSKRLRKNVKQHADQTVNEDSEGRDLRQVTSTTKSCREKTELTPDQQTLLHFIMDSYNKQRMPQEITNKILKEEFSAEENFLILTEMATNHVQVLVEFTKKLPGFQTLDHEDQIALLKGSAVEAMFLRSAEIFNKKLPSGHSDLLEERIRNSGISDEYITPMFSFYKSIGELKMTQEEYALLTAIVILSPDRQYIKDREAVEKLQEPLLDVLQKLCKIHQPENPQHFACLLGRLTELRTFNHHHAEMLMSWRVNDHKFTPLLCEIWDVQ
T1 sequence (P19793 1-462 partner): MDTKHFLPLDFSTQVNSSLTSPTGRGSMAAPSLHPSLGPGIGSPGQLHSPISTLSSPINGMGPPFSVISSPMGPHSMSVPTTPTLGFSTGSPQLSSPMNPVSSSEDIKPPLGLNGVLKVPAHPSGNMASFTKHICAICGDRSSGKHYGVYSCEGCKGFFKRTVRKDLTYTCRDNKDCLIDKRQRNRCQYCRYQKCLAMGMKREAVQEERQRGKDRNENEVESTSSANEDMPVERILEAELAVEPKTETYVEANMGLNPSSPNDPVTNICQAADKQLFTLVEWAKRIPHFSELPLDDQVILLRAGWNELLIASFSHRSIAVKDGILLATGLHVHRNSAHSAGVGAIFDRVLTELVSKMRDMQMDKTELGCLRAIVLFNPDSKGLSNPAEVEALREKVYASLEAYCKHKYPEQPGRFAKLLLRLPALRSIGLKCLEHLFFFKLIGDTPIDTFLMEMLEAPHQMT
Assay: In Vitro FXR Assay (TK): TK-ECRE-luc reporter in transfected CV-1 cells
Assay type: cell-based
Conditions: 18 hrs incubation, luminescence
Summary of the method: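 First, CV-1 cells were grown overnight in stripped-serum DMEM, then transfected for 18 h with expression plasmids for human FXR and RXR plus a TK-ECRE luciferase reporter and YFP. Next, serially diluted compounds were applied for 18 h, and lysates were read by luminescence.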

EC50 [nM] | SMILES
≤ 50 | COc1ccc(C23CCC(CN(c4cc(-c5cnn(C(C)C)c5)ccn4)C(=O)[C@H]4CC[C@H](OC(=O)N5CC(CS(C)(=O)=O)C5)CC4)(CC2)CC3)cc1C [Compound 4.44, 4-((4-(1-Isopropyl-1H-pyrazol-4-yl)pyridin-2-yl) ((4-(4-methoxy-3-methylphenyl)bicyclo [2.2.2]octan-1-yl)methyl)carbamoyl)cyclohexyl trans-3-((methylsulfonyl)methyl)azetidine-1-carboxylate]
≤ 50 | COc1ccc(C23CCC(CN(c4cc(-c5cnn(C(C)C)c5)ccn4)C(=O)[C@H]4CC[C@H](OC(=O)N5CC(C#N)C5)CC4)(CC2)CC3)cc1C [Compound 4.45, 4-((4-(1-Isopropyl-1H-pyrazol-4-yl)pyridin-2-yl) ((4-(4-methoxy-3-methylphenyl)bicyclo [2.2.2]octan-1-yl)methyl)carbamoyl)cyclohexyl trans-3-cyanoazetidine-1-carboxylate]
≤ 50 | COc1ccc(C23CCC(CN(c4cc(-c5cnn(C(C)C)c5)ccn4)C(=O)[C@H]4CC[C@H](OC(=O)NC(C)(C)CO)CC4)(CC2)CC3)cc1C [Compound 4.46, 4-((4-(1-Isopropyl-1H-pyrazol-4-yl)pyridin-2-yl) ((4-(4-methoxy-3-methylphenyl)bicyclo [2.2.2]octan-1-yl)methyl)carbamoyl)cyclohexyl trans-(1-hydroxy-2-methylpropan-2-yl) carbamate]
≤ 50 | COc1ccc(C23CCC(CN(c4cc(-c5cnn(C(C)C)c5)ccn4)C(=O)[C@H]4CC[C@H](OC(=O)N5CC(OC)C5)CC4)(CC2)CC3)cc1C [Compound 4.47, 4-((4-(1-Isopropyl-1H-pyrazol-4-yl)pyridin-2-yl) ((4-(4-methoxy-3-methylphenyl)bicyclo [2.2.2]octan-1-yl)methyl)carbamoyl)(trans-cyclohexyl) 3-methoxyazetidine-1-carboxylate]
≤ 50 | CCOC1CN(C(=O)O[C@H]2CC[C@H](C(=O)N(CC34CCC(c5ccc(OC)c(C)c5)(CC3)CC4)c3cc(-c4cnn(C(C)C)c4)ccn3)CC2)C1 [Compound 4.48, 4-((4-(1-Isopropyl-1H-pyrazol-4-yl)pyridin-2-yl) ((4-(4-methoxy-3-methylphenyl)bicyclo [2.2.2]octan-1-yl)methyl)carbamoyl)(trans-cyclohexyl) 3-ethoxyazetidine-1-carboxylate]
≤ 50 | COCCNC(=O)O[C@H]1CC[C@H](C(=O)N(CC23CCC(c4ccc(OC)c(C)c4)(CC2)CC3)c2cc(-c3cnn(C(C)C)c3)ccn2)CC1 [Compound 4.49, 4-((4-(1-Isopropyl-1H-pyrazol-4-yl)pyridin-2-yl) ((4-(4-methoxy-3-methylphenyl)bicyclo [2.2.2]octan-1-yl)methyl)carbamoyl)cyclohexyl(2-methoxyethyl)trans-carbamate]
≤ 50 | COc1ccc(C23CCC(CN(c4cc(-c5cnn(C(C)C)c5)ccn4)C(=O)[C@H]4CC[C@H](OC(=O)NCCCCO)CC4)(CC2)CC3)cc1C [Compound 4.50, 4-((4-(1-Isopropyl-1H-pyrazol-4-yl)pyridin-2-yl) ((4-(4-methoxy-3-methylphenyl)bicyclo [2.2.2]octan-1-yl)methyl)carbamoyl)cyclohexyl(4-hydroxybutyl)trans-carbamate]
≤ 50 | COc1ccc(C23CCC(CN(c4cc(-c5cnn(C(C)C)c5)ccn4)C(=O)[C@H]4CC[C@H](OC(=O)N(C)CCO)CC4)(CC2)CC3)cc1C [Compound 4.51, 4-((4-(1-Isopropyl-1H-pyrazol-4-yl)pyridin-2-yl) ((4-(4-methoxy-3-methylphenyl)bicyclo [2.2.2]octan-1-yl)methyl)carbamoyl)cyclohexyl (2-hydroxyethyl)(methyl) trans-carbamate]
≤ 50 | COc1ccc(C23CCC(CN(c4cc(-c5cnn(C(C)C)c5)ccn4)C(=O)[C@H]4CC[C@H](OC(=O)N5CCC5)CC4)(CC2)CC3)cc1C [Compound 4.52, 4-((4-(1-Isopropyl-1H-pyrazol-4-yl)pyridin-2-yl) ((4-(4-methoxy-3-methylphenyl)bicyclo [2.2.2]octan-1-yl)methyl)carbamoyl)cyclohexyl trans-azetidine-1-carboxylate]
≤ 50 | COc1ccc(C23CCC(CN(c4cc(-c5cnn(C(C)C)c5)ccn4)C(=O)[C@H]4CC[C@H](OC(=O)N5CC(C)C5)CC4)(CC2)CC3)cc1C [Compound 4.53, 4-((4-(1-Isopropyl-1H-pyrazol-4-yl)pyridin-2-yl) ((4-(4-methoxy-3-methylphenyl)bicyclo [2.2.2]octan-1-yl)methyl)carbamoyl)cyclohexyl trans-3-methylazetidine-1-carboxylate]
≤ 50 | CCC1CN(C(=O)O[C@H]2CC[C@H](C(=O)N(CC34CCC(c5ccc(OC)c(C)c5)(CC3)CC4)c3cc(-c4cnn(C(C)C)c4)ccn3)CC2)C1 [Compound 4.54, 4-((4-(1-Isopropyl-1H-pyrazol-4-yl)pyridin-2-yl) ((4-(4-methoxy-3-methylphenyl)bicyclo [2.2.2]octan-1-yl)methyl)carbamoyl)cyclohexyl trans-3-ethylazetidine-1-carboxylate]
≤ 50 | CCCC1CN(C(=O)O[C@H]2CC[C@H](C(=O)N(CC34CCC(c5ccc(OC)c(C)c5)(CC3)CC4)c3cc(-c4cnn(C(C)C)c4)ccn3)CC2)C1 [Compound 4.55, 4-((4-(1-Isopropyl-1H-pyrazol-4-yl)pyridin-2-yl) ((4-(4-methoxy-3-methylphenyl)bicyclo [2.2.2]octan-1-yl)methyl)carbamoyl)cyclohexyl trans-3-propylazetidine-1-carboxylate]
≤ 50 | COCCN(C)C(=O)O[C@H]1CC[C@H](C(=O)N(CC23CCC(c4ccc(OC)c(C)c4)(CC2)CC3)c2cc(-c3cnn(C(C)C)c3)ccn2)CC1 [Compound 4.56, 4-((4-(1-Isopropyl-1H-pyrazol-4-yl)pyridin-2-yl) ((4-(4-methoxy-3-methylphenyl)bicyclo [2.2.2]octan-1-yl)methyl)carbamoyl)cyclohexyl (2-methoxyethyl)(methyl) trans-carbamate]
≤ 50 | CC(C)n1cc(-c2ccnc(N(CC34CCC(c5ccc(N(C)C)nc5)(CC3)CC4)C(=O)[C@H]3CC[C@H](OC(=O)N4CC(O)C4)CC3)c2)cn1 [Compound 4.57, 4-(((4-(6-(Dimethylamino)pyridin-3-yl)bicyclo[2.2.2]octan-1-yl)methyl)(4-(1-isopropyl-1H-pyrazol-4-yl)pyridin-2-yl)carbamoyl) (trans-cyclohexyl) 3-hydroxyazetidine-1-carboxylate]
≤ 50 | COc1ccc(C23CCC(CN(c4cccc(-n5cnc(C6CC6)c5)c4)C(=O)[C@H]4CC[C@H](OC(=O)N5CC(O)C5)CC4)(CC2)CC3)cc1C [Compound 4.58, 4-((3-(4-Cyclopropyl-1H-imidazol-1-yl)phenyl) ((4-(4-methoxy-3-methylphenyl)bicyclo [2.2.2]octan-1-yl)methyl)carbamoyl)cyclohexyl trans-3-hydroxyazetidine-1-carboxylate]
≤ 50 | COc1ccc(C23CCC(CN(c4ccnc(-c5cnn(C(C)C)c5)c4)C(=O)[C@H]4CC[C@H](OC(=O)N5CC(O)C5)CC4)(CC2)CC3)cc1C [Compound 4.59, 4-((2-(1-Isopropyl-1H-pyrazol-4-yl)pyridin-4-yl) ((4-(4-methoxy-3-methylphenyl)bicyclo [2.2.2]octan-1-yl)methyl)carbamoyl)(trans-cyclohexyl) 3-hydroxyazetidine-1-carboxylate]
≤ 50 | COc1ccc(C23CCC(CN(c4nccc(-c5cnn(C(C)C)c5)n4)C(=O)[C@H]4CC[C@H](OC(=O)N5CC(O)C5)CC4)(CC2)CC3)cc1C [Compound 4.60, 4-((4-(1-Isopropyl-1H-pyrazol-4-yl)pyrimidin-2-yl)((4-(4-methoxy-3-methylphenyl)bicyclo [2.2.2]octan-1-yl)methyl)carbamoyl)(trans-cyclohexyl) 3-hydroxyazetidine-1-carboxylate]
50 to 1000 | COc1ccc(C23CCC(CN(c4cnnc(-c5cnn(C(C)C)c5)c4)C(=O)[C@H]4CC[C@H](OC(=O)N5CC(O)C5)CC4)(CC2)CC3)cc1C [Compound 4.61, 4-((6-(1-Isopropyl-1H-pyrazol-4-yl)pyridazin-4-yl)((4-(4-methoxy-3-methylphenyl)bicyclo [2.2.2]octan-1-yl)methyl)carbamoyl)(trans-cyclohexyl) 3-hydroxyazetidine-1-carboxylate]
≤ 50 | CC(C)c1ccc(C23CCC(CN(c4nccc(-c5cnn(C(C)C)c5)n4)C(=O)[C@H]4CC[C@H](OC(=O)N5CC(O)C5)CC4)(CC2)CC3)cc1 [Compound 4.62, 4-((4-(1-Isopropyl-1H-pyrazol-4-yl)pyrimidin-2-yl)((4-(4-isopropylphenyl)bicyclo[2.2.2]octan-1-yl)methyl)carbamoyl)(trans-cyclohexyl) 3-hydroxyazetidine-1-carboxylate]

— US20220056019A1, “FARNESOID X RECEPTOR AGONISTS AND USES THEREOF” (Metacrine, Inc., priority 2018, published 2022)
